Calls of active or inactive are those of the source. The calls are words filed in the database; no cut-off is given here. Where a SMILES comes first, the peptide text is derived from it. Bridges are numbered along the chain shown (N, C = ends).

This passage reports ΔTm, IC50 and inhibition results from ChEMBL document CHEMBL4613297, “Peptides Mimicking the β7/β8 Loop of HIV-1 Reverse Transcriptase p51 as "Hotspot-Targeted" Dimerization Inhibitors” (ACS Med Chem Lett, 2020).

Assay [1] addresses Human immunodeficiency virus type 1 reverse transcriptase (Human immunodeficiency virus 1) (UniProt Q72547). The assay is described as follows: Inhibition of recombinant HIV-1 group M subtype B reverse transcriptase p51/p66 expressed in Escherichia coli M15 assessed as change in melting temperature at 100 uM incubated for 1 hr by sypro orange dye based differential scanning fluorimetric analysis. Conditions: HIV-1 M:B. In general terms: DSF heats the sample and reads unfolding from a dye or from intrinsic fluorescence.

In assay [2] the target is T1, Human immunodeficiency virus type 1 reverse transcriptase (Human immunodeficiency virus 1, UniProt Q72547). Briefly: Inhibition of HIV-1 reverse transcriptase His-tagged p51 heterodimerization with HIV-1 reverse transcriptase p66 incubated for 16 hrs by ELISA. Background: ELISA stands for enzyme-linked immunosorbent assay.
Assay [3] has as its target T1, Human immunodeficiency virus type 1 reverse transcriptase. Briefly: Inhibition of recombinant HIV-1 BH10 reverse transcriptase p51/p66 expressed in Escherichia coli preincubated for 10 mins followed by D38/25PGA template-primer addition and measured after 10 to 30 secs by denaturing PAGE based single nucleotide incorporation assay. On the set-up: species or system Human immunodeficiency virus type 1 BH10.

The target of assay [4] is Human immunodeficiency virus type 1 reverse transcriptase (Human immunodeficiency virus 1) (UniProt Q72547). The assay is described as follows: Inhibition of RNase H activity of recombinant HIV-1 BH10 reverse transcriptase p51/p66 expressed in Escherichia coli at 100 uM. The following applies: Human immunodeficiency virus type 1 BH10.
In assay [5] the target is T1, Human immunodeficiency virus type 1 reverse transcriptase. Briefly: Inhibition of recombinant HIV-1 BH10 reverse transcriptase p51/p66 expressed in Escherichia coli assessed as reduction in recovery of DNA polymerase activity preincubated with 15% acetonitrile for 15 hrs followed by compound addition and acetonitrile reduced to <1% using poly(rA)/oligo(dT)16 as template/primer in presence of [3H]dTTP. On the set-up: species or system Human immunodeficiency virus type 1 BH10.

Assay [6] has as its target Human immunodeficiency virus type 1 reverse transcriptase (Human immunodeficiency virus 1) (UniProt Q72547). Briefly: Inhibition of recombinant HIV-1 BH10 reverse transcriptase p51/p66 expressed in Escherichia coli assessed as reduction in recovery of DNA polymerase activity at 200 uM preincubated with 15% acetonitrile for 15 hrs followed by compound addition and acetonitrile reduced to <1% using poly(rA)/oligo(dT)16 as template/primer in presence of [3H]dTTP relative to control. The following applies: Human immunodeficiency virus type 1 BH10.

With `CC[C@H](C)[C@@H]1NC(=O)CNC(=O)[C@@H]2CCCN2C(=O)[C@H]([C@@H](C)O)NC(=O)C(CCC(=O)O)NC(=O)[C@H](CC(N)=O)NC(=O)C(CC(N)=O)NC(=O)[C@@H]([C@@H](C)CC)NC(=O)[C@H](CO)NC(=O)[C@@H]2CCCN2C(=O)[C@H]([C@@H](C)CC)NC(=O)[C@@H](N)CSSC[C@@H](C(=O)O)NC1=O` (stereo partly drawn), the shift in melting temperature (ΔTm) in assay [1] is -14.5 °C. In addition, the figures for the half-maximal inhibitory concentration (IC50) in assay [2], in assay [3] and in assay [5] were 137 µM, over 145 µM and over 250 µM, respectively. For the same compound, the inhibition entry in assay [4] was “inactive”. In assay [6], the inhibition was under 5%.

In the case of `CC[C@H](C)[C@@H]1NC(=O)[C@H](CCCNC(=N)N)NC(=O)[C@H](Cc2ccc(O)cc2)NC(=O)[C@H]2CCCN2C(=O)[C@@H]2CCCN2C(=O)[C@H](Cc2ccccc2)NC(=O)[C@H]([C@H](C)O)NC(=O)[C@H]([C@@H](C)CC)NC(=O)[C@@H]2CCCN2C(=O)[C@H](CC(N)=O)NC(=O)[C@H]([C@@H](C)CC)NC(=O)[C@@H](CO)NC(=O)[C@H](CC(N)=O)NC(=O)[C@@H](CCC(=O)O)NC(=O)[C@H]([C@H](C)O)NC(=O)[C@@H]2CCCN2C(=O)CNC1=O`, the shift in melting temperature (ΔTm) in assay [1] was -15 °C. The IC50 in assay [3] is over 145 µM. The inhibition entry in assay [4] is “inactive”.

Consider `CC[C@H](C)[C@@H]1NC(=O)[C@@H](N)CSSC[C@@H](C(=O)O)NC(=O)[C@H](CCC(=O)O)NC(=O)[C@H](CC(N)=O)NC(=O)[C@H](CC(N)=O)NC1=O` (H-CINNEC-OH; disulfide 1-6), for which, in assay [1], the ΔTm was -15.8 °C. Also, the half-maximal inhibitory concentration (IC50) in assay [2] was determined as 37 µM; in assay [3], 109 µM; in assay [5] it was 203 µM. Moreover, the inhibition result in assay [4] was “inactive”.

As for `CC[C@H](C)[C@H](NC(=O)CNC(=O)[C@@H]1CCCN1C(=O)[C@@H](NC(=O)[C@H](CCC(=O)O)NC(=O)[C@H](CC(N)=O)NC(=O)[C@H](CC(N)=O)NC(=O)[C@@H](NC(=O)[C@H](CO)NC(=O)[C@@H]1CCCN1C(=O)[C@@H](NC(=O)[C@@H](NC(=O)[C@@H](N)Cc1ccccc1)[C@@H](C)O)[C@@H](C)CC)[C@@H](C)CC)C(C)O)C(=O)N[C@@H](CCCNC(=N)N)C(=O)N[C@@H](Cc1ccc(O)cc1)C(=O)O` (single isomer, unassigned), the ΔTm in assay [1] is -15.6 °C. In assay [3], the half-maximal inhibitory concentration (IC50) is over 145 µM. In addition, the inhibition result in assay [4] is “inactive”.

With H-IPSINNETPGI-OH, the thermal shift (ΔTm) in assay [1] was -13.6 °C. The IC50 in assay [2] was over 150 µM; in assay [3], over 145 µM. Also, the inhibition result in assay [4] is “inactive”.

With `Cc1cn([C@@H]2O[C@H](CO[Si](C)(C)C(C)(C)C)[C@]3(C=CS(=O)(=O)O3)[C@H]2O[Si](C)(C)C(C)(C)C)c(=O)[nH]c1=O`, the shift in melting temperature (ΔTm) in assay [1] was -1.4 °C.

Consider `CC[C@H](C)[C@@H]1NC(=O)[C@H](CO)NC(=O)[C@H](N)CSSC[C@@H](C(=O)O)NC(=O)[C@@H]2CCCN2C(=O)[C@H]([C@@H](C)O)NC(=O)[C@H](CCC(=O)O)NC(=O)[C@H](CC(N)=O)NC(=O)[C@H](CC(N)=O)NC1=O`, for which the ΔTm in assay [1] is -15.8 °C. Moreover, the half-maximal inhibitory concentration (IC50) in assay [2] was 61 µM; in assay [3], over 145 µM; in assay [5], over 250 µM. Besides, the inhibition result in assay [4] was “inactive”. Besides, the inhibition in assay [6] came to 43%.

One may read the ΔTm as the shift of the melting midpoint relative to a reference. The term IC50 denotes the concentration that inhibits the measured activity by half. Usually inhibition stands for how much of the control response was suppressed.
